Data taken from US11090391B2, “Protein nanocages with enhanced mucus penetration for targeted tissue and intracellular delivery” (The Johns Hopkins University, priority 2016, dated 2021).
Values joined by “and” are separate entries in the source; they are usually repeats but may differ in a detail not shown here. Identical values can stand only once.

Legend:
[1] = system: 3LL-Luc orthotopic proximal lung cancer; test: In vivo anti-cancer efficacy, orthotopic proximal lung cancer model; set-up: species or system mouse
From the text: To evaluate the efficacy of PEG-FTn-DOX for treating lung airway cancer, an aggressive orthotopic mouse model was established of proximal lung cancer in inbred mice with intact host immunity. The model was established via intratracheal intubation of cancer cells into the tracheal and bronchial epithelium of lung airways (DuPage M, et al., Nature protocols, 4:1064-1072 (2009)), which was relevant to small cell lung cancer and squamous-cell lung cancer. Briefly, female C57BL/6 mice (6-8 weeks) were inoculated with 2.5×10^4 3 LL-Luc cells in 50 μL of DMEM medium via intratracheal intubation using a 22 G×1″ Safelet catheter (Exel International). Three days after the inoculation, bioluminescence signal in the lung was observed using a Xenogen IVIS Spectrum optical imaging system. […] The tumor growth was monitored at various time points using an IVIS imaging system and the bioluminescence signal in lung at different time points was quantitatively analyzed by the Living Image® (Caliper Life Sciences) software. The survival of mice was recorded daily, and data was analyzed by Kaplan-Meier survival curve.
The luciferase activity of 3LL-Luc was visualized and quantified by a Xenogen IVIS Spectrum optical imaging system. In brief, mice were anesthetized with 2% isoflurane in O2 and received intraperitoneal injection of D-luciferin solution in PBS at a dose of 150 mg/kg. Serial images were acquired between 5 and 20 minutes after the D-luciferin administration, and the bioluminescence signal intensity was quantified by the Living Image® software.

3LL cells = test: Intracellular trafficking, confocal microscopy; assay type: cell-based, mouse
3LL tumor spheroids = test: Growth delay of 3D cell spheroids; assay type: cell-based, mouse; settings: 10 μM DOX, up to 11 days
Experimental: For cytotoxicity and growth delay experiments of 3D cell spheroids, 5×10^3 cells were seeded into the 96-well plates containing agarose. […] The diameters of tumor spheroids were recorded with a Zeiss Axiovert 200 phase-contrast microscope (Carl Zeiss) at the indicated time points.

[2] = system: 3LL-based tumor spheroids; test: Penetration of DOX formulations in tumor spheroids; assay type: cell-based, mouse; settings: 10 μM DOX concentration
Experimental: (§1) Multicellular tumor spheroid models consisting of different cancer cell lines were prepared by modifying a previously reported protocol (Friedrich J, et al, Nature Protocols, 4:309-324 (2009)). Briefly, 50 μL DMEM medium containing 1.5% agarose (wt/vol) was plated onto each well of a 96-well microtiter plate under sterile conditions. After the agarose solidifies, the plates were stored at room temperature until use. For the penetration study, 5×10^3 cells were seeded onto the agarose-plated 96-well plates. After 4-5 days culture to obtain multicellular tumor spheroids (400-500 μm in diameter), the tumor spheroids were carefully transferred into glass bottom dishes. […] After the 2-hour incubation, the cells were observed using confocal microscopy with Z-stack imaging at ˜10 μm intervals. […] The 3D images of spheroids were reconstructed by ZEN microscopy software (Carl Zeiss). For analyzing the penetration distance, the radial intensity distribution profile was determined using a custom-made MATLAB code where αtumor is the radius of individual spheroids and r is the radial distance from the spheroid center (r/αtumor=0 and 1 indicate the center and edge of the tumor spheroid, respectively). […] Quantification analysis of signal intensity was performed with ImageJ software (NIH).
(§2) Multicellular tumor spheroids were prepared and post-treatment analyzed as described in Example 4.

[3] = In vitro pH-sensitive DOX release, dialysis; assay type: physicochemical
Experimental: At designated times up to 6 days, 150 μL of solution outside the dialysis bag was collected and the same amount of fresh PBS was added back. After 3 days of incubation, the buffer was adjusted to pH 5.0 to induce the release of DOX from PEG-FTn. The concentrations of released free DOX at varying time points were measured by HPLC.

[4] = Physicochemical properties (hydrodynamic diameter, ζ-potential, drug loading)
Experimental: The DOX conjugated PEG-FTn is denoted as FTn/FTn-PEG2k/DOX. […] The mixture was incubated for 1 hour and 1.5 mg EDC was added to activate a carboxyl group of each DOX-linker conjugate. The resultant compounds were analyzed using high-performance liquid chromatography (HPLC, Varian Inc.) equipped with a C18 reverse phase column. […] The final product was extensively dialyzed (10 kDa MWCO; Thermo Scientific) and purified with a PD-10 column.

H1975-based spheroids = test: Penetration of DOX formulations in tumor spheroids; assay type: cell-based, human
Experimental: as §1, §2

H460-based spheroids = test: Penetration of DOX formulations in tumor spheroids; assay type: cell-based, human
Experimental: as §1, §2

A549-based spheroids = test: Penetration of DOX formulations in tumor spheroids; assay type: cell-based, human
Experimental: as §1, §2

Hif-1α = Hif-1α expression, western blotting in 3LL cells; assay type: cell-based, mouse; settings: 0.625 to 2.5 μM AF, dose- and time-dependent
Experimental: The inhibition was dose-dependent, i.e., increasing the amount of AF in the free AF or that in […] from 0.625 μM to 1.25 μM, further to 2.5 μM, decreased the level of Hif-1α expression. The inhibition was also time-dependent, i.e., the inhibition was more prominent after a 6 hour-incubation than a 24 h-incubation, and even more prominent than a 48 h-incubation. Hif-1α, a marker for tumor hypoxia, is an indicator of cancer progression, metastasis, and drug resistance in clinic.

3LL subcutaneous tumor = test: Tumor growth, 3LL subcutaneous tumor model, tail vein injection; assay type: in vivo; settings: day 10, injections at days 0, 2, 4, 6, 8
Experimental: […] was injected at the tail vein to assay the effect on tumor growth in a 3LL subcutaneous tumor model at several time points (0, 2, 4, 6, and 8 days post tumor development). At day 10 post tumor development, the tumor volume was reduced in the animals treated with AF, as well as in the animals treated with […] treatment.

[5] = single intratracheal dose 0.25 mg/kg, 11 days after treatment

Row | Substance | progression-free survival ([1]; after 60 days) [%] | decrease in bioluminescence signal intensity compared to free DOX-treated mice [1, 5] [fold] | decrease in bioluminescence signal intensity compared to untreated mice [1, 5] [fold] | DOX found in cytoplasm compared with nucleus (3LL cells; 30 min after addition) [%] | DOX found in cytoplasm compared with nucleus (3LL cells; 2 h after addition) [%] | colocalization with lysosomes (3LL cells; 2 hours after addition) | intracellular localization of DOX (3LL cells; 2 hours after addition) | delay of spheroid growth compared to free DOX (3LL tumor spheroids) | distribution in spheroids (3D confocal images) [2] | mean fluorescence signal intensity in the entire spheroid vs free DOX [2] | maximum release of DOX ([3]; pH 5.0, after 4 hours) [%] | DOX released ([3]; pH 7.4, over 3 days, 37° C.) | DOX molecules per PEG-FTn [4] | Hydrodynamic diameter [4] [nm] | ζ-potential [4] [mV] | penetration compared to free DOX (H1975-based spheroids) | penetration compared to free DOX (H460-based spheroids) | penetration compared to free DOX (A549-based spheroids) | Hif-1α expression (Hif-1α) | tumor volume (3LL subcutaneous tumor)
1 | FTn/FTn-PEG2k/DOX: DOX conjugated to FTn/FTn-PEG2k via acid-sensitive cis-aconityl linker | 60 | 17 | 40 | ~95 | ~55 | colocalized with lysosomes | observed in both the cytoplasm and nucleus | superior ability of delaying the growth | uniformly distributed throughout the entire tumor spheroid | significantly greater | ~80 | negligible | 88±5 and 88 ± 22 | 15.3 ± 3.2 | −7.4 ± 2.8 | Improved penetration | Improved penetration | Improved penetration |  | 
2 | Acriflavine [AF] |  |  |  |  |  |  |  |  |  |  |  |  |  |  |  |  |  |  | inhibited Hif-1α expression | reduced
